Source: patent US20240239792A1, “MODULATORS OF BCL-2 OR BCL-2/BCL-XL AND USES THEREOF” (APPICINE THERAPEUTICS (HK) LIMITED, priority 2021, published 2024)

Columns and labels:
DOHH2 cells = assay: CellTiter-Glo cell proliferation assay, DOHH2 cells; format: cell-based; conditions: Homo sapiens, DOHH-2, 72 hours
Method in brief: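 DOHH2 cells seeded in DMEM + 10% FBS, exposed to serially diluted compound for 72 h at 37 °C, 5% CO2. Viability read by CellTiter-Glo luminescence; GI50 calculated.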

BCL-2 = target: T1, BCL-2 (Homo sapiens, UniProt P10415); assay: HTRF BCL-2/BAK assay (Cisbio); format: binding; conditions: recombinant human Tag1-BCL-2 2 nM, Tag2-BAK 10 nM
T1 construct: purchased Cisbio 63ADK000CB01PEG
Method: (§1) Then the pre-mixed anti-Tag1-Eu^3+ and anti-tag2-XL665 were added to the plate and further incubated at room temperature for another 2 hours. The signals ([…]) were read on Envision 2104 instrument. The IC50 for each compound was derived from fitting the signal of 665/615 nM to the increasing compound concentration.
(§2) Using the above assays, the following compounds were tested.

BCL-XL = target: T2, BCL-XL (Homo sapiens, UniProt Q07817); assay: HTRF BCL-XL/BAK assay (Cisbio); format: binding; conditions: recombinant human Tag1-BCL-XL 2 nM, Tag2-BAK 5 nM
T2 construct: purchased Cisbio 63ADK000CB04PEG
Method: as §1, §2

T1 sequence (P10415 whole entry): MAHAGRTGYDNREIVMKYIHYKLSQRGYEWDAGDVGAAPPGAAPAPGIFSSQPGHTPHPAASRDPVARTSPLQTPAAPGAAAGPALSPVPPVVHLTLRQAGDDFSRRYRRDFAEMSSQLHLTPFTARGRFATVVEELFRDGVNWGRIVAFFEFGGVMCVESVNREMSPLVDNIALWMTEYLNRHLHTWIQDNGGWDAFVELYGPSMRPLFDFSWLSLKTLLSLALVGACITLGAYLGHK
T2 sequence (Q07817 whole entry): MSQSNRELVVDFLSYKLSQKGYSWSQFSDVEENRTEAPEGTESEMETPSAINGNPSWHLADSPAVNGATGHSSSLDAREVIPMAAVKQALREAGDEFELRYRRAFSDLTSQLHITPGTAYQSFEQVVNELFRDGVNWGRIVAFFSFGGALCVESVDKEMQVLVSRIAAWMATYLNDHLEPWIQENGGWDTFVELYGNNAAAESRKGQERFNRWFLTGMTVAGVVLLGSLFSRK

| SMILES | GI50 (DOHH2 cells) [nM] | IC50 (BCL-2) [nM] | IC50 (BCL-XL) [nM] |
| --- | --- | --- | --- |
| CP(C)(=O)c1cccc2c1CCCCC2N1CCN(c2ccc(C(=O)NS(=O)(=O)c3ccc(NCC4CCOCC4)c([N+](=O)[O-])c3)c(Oc3cnc4[nH]ccc4c3)c2)CC1 (stereo not drawn) [Compound 63, 2-((1H-pyrrolo[2,3-b]pyridin-5-yl)oxy)-4-(4-(1-(dimethylphosphoryl)-6,7,8,9-tetrahydro-5H-benzo[7]annulen-5-yl)piperazin-1-yl)-N-((3-nitro-4-(((tetrahydro-2H-pyran-4-yl)methyl)amino)phenyl)sulfonyl)benzamide] | > 5000 | 20 to 200 | > 2000 |
| O=C(NS(=O)(=O)c1ccc(NCC2COC3OCCC23)c([N+](=O)[O-])c1)c1ccc(N2CCN(C3CCCCc4c(Cl)cccc43)CC2)cc1Oc1cnc2[nH]ccc2c1 (stereo not drawn) [Compound 64, 2-((1H-pyrrolo[2,3-b]pyridin-5-yl)oxy)-4-(4-(1-chloro-6,7,8,9-tetrahydro-5H-benzo[7]annulen-5-yl)piperazin-1-yl)-N-((4-(((hexahydrofuro[2,3-b]furan-3-yl)methyl)amino)-3-nitrophenyl)sulfonyl)benzamide] | 50 to 500 | < 20 | 20 to 200 |
| CC(=O)N1CCN(CCNc2ccc(S(=O)(=O)NC(=O)c3ccc(N4CCN([C@@H]5CCCCc6c(Br)cccc65)CC4)cc3Oc3cnc4[nH]ccc4c3)cc2[N+](=O)[O-])CC1 [Compound 65, (R)-2-((1H-pyrrolo[2,3-b]pyridin-5-yl)oxy)-N-((4-((2-(4-acetylpiperazin-1-yl)ethyl)amino)-3-nitrophenyl)sulfonyl)-4-(4-(1-bromo-6,7,8,9-tetrahydro-5H-benzo[7]annulen-5-yl)piperazin-1-yl)benzamide] | < 50 | < 20 | < 20 |
| O=C(NS(=O)(=O)c1ccc(NCC2CCOCC2)c([N+](=O)[O-])c1)c1ccc(N2CCN([C@@H]3CCCCc4c(Br)cccc43)CC2)cc1Oc1cnc2[nH]ccc2c1 [Compound 66, (R)-2-((1H-pyrrolo[2,3-b]pyridin-5-yl)oxy)-4-(4-(1-bromo-6,7,8,9-tetrahydro-5H-benzo[7]annulen-5-yl)piperazin-1-yl)-N-((3-nitro-4-(((tetrahydro-2H-pyran-4-yl)methyl)amino)phenyl)sulfonyl)benzamide] | < 50 | < 20 | 20 to 200 |
| O=C(NS(=O)(=O)c1ccc(NCC2CCC3(CC2)COC3)c([N+](=O)[O-])c1)c1ccc(N2CCN([C@@H]3CCCCc4c(Br)cccc43)CC2)cc1Oc1cnc2[nH]ccc2c1 [Compound 67, (R)-2-((1H-pyrrolo[2,3-b]pyridin-5-yl)oxy)-N-((4-(((2-oxaspiro[3.5]nonan-7-yl)methyl)amino)-3-nitrophenyl)sulfonyl)-4-(4-(1-bromo-6,7,8,9-tetrahydro-5H-benzo[7]annulen-5-yl)piperazin-1-yl)benzamide] | < 50 | < 20 | 20 to 200 |
| O=C(NS(=O)(=O)c1ccc(NCCN2CCC3(CC2)COC3)c([N+](=O)[O-])c1)c1ccc(N2CCN([C@@H]3CCCCc4c(Br)cccc43)CC2)cc1Oc1cnc2[nH]ccc2c1 [Compound 68, (R)-2-((1H-pyrrolo[2,3-b]pyridin-5-yl)oxy)-N-((4-((2-(2-oxa-7-azaspiro[3.5]nonan-7-yl)ethyl)amino)-3-nitrophenyl)sulfonyl)-4-(4-(1-bromo-6,7,8,9-tetrahydro-5H-benzo[7]annulen-5-yl)piperazin-1-yl)benzamide] | < 50 | < 20 | < 20 |
| CN1CCC(CNc2ccc(S(=O)(=O)NC(=O)c3ccc(N4CCN([C@@H]5CCCCc6c(Br)cccc65)CC4)cc3Oc3cnc4[nH]ccc4c3)cc2[N+](=O)[O-])CC1 [Compound 69, (R)-2-((1H-pyrrolo[2,3-b]pyridin-5-yl)oxy)-4-(4-(1-bromo-6,7,8,9-tetrahydro-5H-benzo[7]annulen-5-yl)piperazin-1-yl)-N-((4-(((1-methylpiperidin-4-yl)methyl)amino)-3-nitrophenyl)sulfonyl)benzamide] | < 50 | < 20 | < 20 |
| O=C(NS(=O)(=O)c1ccc(NCC2CCC3(CC2)COC3)c([N+](=O)[O-])c1)c1ccc(N2CCN([C@@H]3CCCCc4c(Cl)cccc43)CC2)cc1Oc1cnc2[nH]ccc2c1 [Compound 71, (R)-2-((1H-pyrrolo[2,3-b]pyridin-5-yl)oxy)-N-((4-(((2-oxaspiro[3.5]nonan-7-yl)methyl)amino)-3-nitrophenyl)sulfonyl)-4-(4-(1-chloro-6,7,8,9-tetrahydro-5H-benzo[7]annulen-5-yl)piperazin-1-yl)benzamide] | < 50 | < 20 | 20 to 200 |
| O=C(NS(=O)(=O)c1ccc(NCC2CC3(COC3)C2)c([N+](=O)[O-])c1)c1ccc(N2CCN([C@@H]3CCCCc4c(Cl)cccc43)CC2)cc1Oc1cnc2[nH]ccc2c1 [Compound 72, (R)-2-((1H-pyrrolo[2,3-b]pyridin-5-yl)oxy)-N-((4-(((2-oxaspiro[3.3]heptan-6-yl)methyl)amino)-3-nitrophenyl)sulfonyl)-4-(4-(1-chloro-6,7,8,9-tetrahydro-5H-benzo[7]annulen-5-yl)piperazin-1-yl)benzamide] | < 50 | < 20 | 20 to 200 |
| O=C(NS(=O)(=O)c1ccc(NCC2CCOCC2)c([N+](=O)[O-])c1)c1ccc(N2CCN([C@@H]3CCCCc4c3cccc4[N+](=O)[O-])CC2)cc1Oc1cnc2[nH]ccc2c1 [Compound 73, (R)-2-((1H-pyrrolo[2,3-b]pyridin-5-yl)oxy)-N-((3-nitro-4-(((tetrahydro-2H-pyran-4-yl)methyl)amino)phenyl)sulfonyl)-4-(4-(1-nitro-6,7,8,9-tetrahydro-5H-benzo[7]annulen-5-yl)piperazin-1-yl)benzamide] | 50 to 500 | < 20 | 20 to 200 |
| O=C(NS(=O)(=O)c1ccc(NCC2CCC3(CC2)COC3)c([N+](=O)[O-])c1)c1ccc(N2CCN([C@@H]3CCCCc4c3cccc4[N+](=O)[O-])CC2)cc1Oc1cnc2[nH]ccc2c1 [Compound 74, (R)-2-((1H-pyrrolo[2,3-b]pyridin-5-yl)oxy)-N-((4-(((2-oxaspiro[3.5]nonan-7-yl)methyl)amino)-3-nitrophenyl)sulfonyl)-4-(4-(1-nitro-6,7,8,9-tetrahydro-5H-benzo[7]annulen-5-yl)piperazin-1-yl)benzamide] | < 50 | < 20 | 20 to 200 |
| O=C(NS(=O)(=O)c1ccc(NCC2CC3(COC3)C2)c([N+](=O)[O-])c1)c1ccc(N2CCN([C@@H]3CCCCc4c3cccc4[N+](=O)[O-])CC2)cc1Oc1cnc2[nH]ccc2c1 [Compound 75, (R)-2-((1H-pyrrolo[2,3-b]pyridin-5-yl)oxy)-N-((4-(((2-oxaspiro[3.3]heptan-6-yl)methyl)amino)-3-nitrophenyl)sulfonyl)-4-(4-(1-nitro-6,7,8,9-tetrahydro-5H-benzo[7]annulen-5-yl)piperazin-1-yl)benzamide] | < 50 | < 20 | 20 to 200 |
| Cc1ccc(S(=O)(=O)N2CCCC(N3CCN(c4ccc(C(=O)NS(=O)(=O)c5ccc(NCC6CCOCC6)c([N+](=O)[O-])c5)c(Oc5cnc6[nH]ccc6c5)c4)CC3)c3ccccc32)cc1 (stereo not drawn) [Compound 76, 2-((1H-pyrrolo[2,3-b]pyridin-5-yl)oxy)-N-((3-nitro-4-(((tetrahydro-2H-pyran-4-yl)methyl)amino)phenyl)sulfonyl)-4-(4-(1-tosyl-2,3,4,5-tetrahydro-1H-benzo[b]azepin-5-yl)piperazin-1-yl)benzamide] | 500 to 5000 | < 20 | 200 to 2000 |
| O=C(NS(=O)(=O)c1ccc(NCC2CC3(COC3)C2)c([N+](=O)[O-])c1)c1ccc(N2CCN([C@@H]3CCCCc4c(Br)cccc43)CC2)cc1Oc1cnc2[nH]ccc2c1 [Compound 77, (R)-2-((1H-pyrrolo[2,3-b]pyridin-5-yl)oxy)-N-((4-(((2-oxaspiro[3.3]heptan-6-yl)methyl)amino)-3-nitrophenyl)sulfonyl)-4-(4-(1-bromo-6,7,8,9-tetrahydro-5H-benzo[7]annulen-5-yl)piperazin-1-yl)benzamide] | < 50 | < 20 | 20 to 200 |
| O=C(NS(=O)(=O)c1ccc(NCC2CCOCC2)c([N+](=O)[O-])c1)c1ccc(N2CCN([C@@H]3CCCCc4c(Br)cc(F)cc43)CC2)cc1Oc1cnc2[nH]ccc2c1 [Compound 78, (R)-2-((1H-pyrrolo[2,3-b]pyridin-5-yl)oxy)-4-(4-(1-bromo-3-fluoro-6,7,8,9-tetrahydro-5H-benzo[7]annulen-5-yl)piperazin-1-yl)-N-((3-nitro-4-(((tetrahydro-2H-pyran-4-yl)methyl)amino)phenyl)sulfonyl)benzamide] | 50 to 500 | < 20 | 200 to 2000 |
| O=C(NS(=O)(=O)c1ccc(NCC2CCC3(CC2)COC3)c([N+](=O)[O-])c1)c1ccc(N2CCN([C@@H]3CCCCc4c(Br)cc(F)cc43)CC2)cc1Oc1cnc2[nH]ccc2c1 [Compound 79, (R)-2-((1H-pyrrolo[2,3-b]pyridin-5-yl)oxy)-N-((4-(((2-oxaspiro[3.5]nonan-7-yl)methyl)amino)-3-nitrophenyl)sulfonyl)-4-(4-(1-bromo-3-fluoro-6,7,8,9-tetrahydro-5H-benzo[7]annulen-5-yl)piperazin-1-yl)benzamide] | 50 to 500 | < 20 | 200 to 2000 |
